The term IC50 denotes the concentration that gives 50% inhibition. As a reminder, the EC50 is the concentration that produces a half-maximal response. The term half-life denotes the time needed for the level to fall by half in the phase considered. As usually defined, the Ki is a dissociation constant, usually derived from enzyme kinetics or from competition with a known ligand.

Values joined by “and” are separate entries in the source; they are usually repeats but may differ in a detail not shown here. Equal values may be shown once.

Results on eight molecules are retold here after ChEMBL document CHEMBL5241102, “Drugs for the treatment of glaucoma: Targets, structure-activity relationships and clinical research” (Eur J Med Chem, 2021).

Series [1] is filed under the species Mus musculus. Nature of the series: Antiglaucoma activity in mouse eye assessed as increase in lymphatic drainage relative to control. In kind it is functional.
Series [2] in a line: Induction of disruption of actin stress fibers in PTM cells by actin stress fiber assay. In kind it is functional, cell-based, Sus scrofa. The settings on record: ptm cell.
Series [3] addresses Prostaglandin F2-alpha receptor (Homo sapiens, UniProt P43088). The series is described as follows: Agonist activity at FP receptor (unknown origin).
The target in series [4] is T1, Prostaglandin E2 receptor EP3 subtype (Homo sapiens, UniProt P43115).
T1 sequence (P43115 whole entry): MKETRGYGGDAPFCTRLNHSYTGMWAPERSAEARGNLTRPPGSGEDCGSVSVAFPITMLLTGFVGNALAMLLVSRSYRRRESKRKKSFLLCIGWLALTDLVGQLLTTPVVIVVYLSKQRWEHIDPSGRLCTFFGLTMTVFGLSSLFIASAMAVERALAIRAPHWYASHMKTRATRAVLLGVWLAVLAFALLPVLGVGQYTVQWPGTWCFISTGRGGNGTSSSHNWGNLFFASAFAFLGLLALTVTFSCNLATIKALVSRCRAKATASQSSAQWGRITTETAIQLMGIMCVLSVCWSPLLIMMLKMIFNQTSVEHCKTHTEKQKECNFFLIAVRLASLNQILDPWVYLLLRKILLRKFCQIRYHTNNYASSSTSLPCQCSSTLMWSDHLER
The series is described as follows: Agonist activity at EP3 (unknown origin).

Series [5] deals with Autotaxin (Homo sapiens, UniProt Q13822). The series is described as follows: Inhibition of ATX (unknown origin).
A short description of series [6]: Half life in human. In kind it is ADME.
The subject of series [7] is Rhesus monkey. Nature of the series: Antiglaucoma activity in ocular […] monkey assessed as reduction in intraocular pressure. In kind it is functional, organism-based. The settings on record: Macaca mulatta.
The target in series [8] is Prostaglandin E2 receptor EP2 subtype (Homo sapiens, UniProt P43116). The series is described as follows: Binding affinity to EP2 (unknown origin) assessed as inhibition constant.
The nature of series [9]: Induction of disruption of actin stress fibers in human TM1 cells by actin stress fiber assay. The format is functional, cell-based.
The nature of series [10]: Half life in rabbit. The note with it: in vivo. In kind it is ADME, Oryctolagus cuniculus.

Prostaglandin F2-alpha receptor, sequence (P43088 whole entry): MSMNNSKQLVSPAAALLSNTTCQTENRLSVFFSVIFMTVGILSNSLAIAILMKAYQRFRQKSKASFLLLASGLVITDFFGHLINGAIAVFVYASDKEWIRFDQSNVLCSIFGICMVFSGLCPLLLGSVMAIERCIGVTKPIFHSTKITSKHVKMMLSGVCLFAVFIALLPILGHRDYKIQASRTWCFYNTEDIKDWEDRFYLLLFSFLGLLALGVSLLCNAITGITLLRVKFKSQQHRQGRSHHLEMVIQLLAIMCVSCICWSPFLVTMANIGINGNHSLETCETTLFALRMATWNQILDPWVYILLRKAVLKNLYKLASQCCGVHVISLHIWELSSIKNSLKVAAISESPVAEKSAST
Prostaglandin E2 receptor EP2 subtype, sequence (P43116 whole entry): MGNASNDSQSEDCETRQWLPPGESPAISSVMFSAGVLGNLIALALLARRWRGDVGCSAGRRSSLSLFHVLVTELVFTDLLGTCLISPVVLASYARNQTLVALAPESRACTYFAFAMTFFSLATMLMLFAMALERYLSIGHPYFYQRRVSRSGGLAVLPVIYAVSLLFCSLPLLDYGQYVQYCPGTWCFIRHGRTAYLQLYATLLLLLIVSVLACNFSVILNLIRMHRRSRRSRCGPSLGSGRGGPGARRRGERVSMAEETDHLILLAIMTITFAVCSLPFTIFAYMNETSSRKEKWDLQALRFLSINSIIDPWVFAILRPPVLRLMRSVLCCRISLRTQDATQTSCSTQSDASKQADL

With `CC(C)OC(=O)CCC/C=C\C[C@@H]1[C@@H](CC[C@@H](O)CCc2ccccc2)[C@H](O)C[C@@H]1O` [LATANOPROST], in series [1], the Activity is on record as 400%.

With `NC[C@@H](C(=O)Nc1ccc2cnccc2c1)c1ccc(CO)cc1`, in series [2], the IC50 was 22 nM and 3 nM. For the molecule `CC(C)OC(=O)CCC[C@H]1CC[C@@H]2[C@@H](/C=C/[C@@H](O)COc3cc(F)ccc3F)[C@H](O)C[C@@H]2OC1` [SEPETAPROST], the EC50 in series [3] amounted to 3030 nM; in series [4], 10 nM. In [5], `CCCCCn1c(N2CCC[C@H](C(=O)O)C2)cc(=O)n2cc(-c3ccc(Cl)cc3)nc12` showed an IC50 of 110 nM. Consider `O=C(O)CNc1cccc(CN(Cc2ccc(-n3cccn3)cc2)S(=O)(=O)c2cccnc2)n1` [OMIDENEPAG], for which, in series [6], the half-life came to 0.5 h. For the same molecule, the EC50 in series [7] came out at 8.3 nM. In addition, the Ki in series [8] turned out to be 3.6 nM. In the case of `Cc1ccc(C(=O)OCc2ccc([C@@H](CN)C(=O)Nc3ccc4cnccc4c3)cc2)c(C)c1`, the IC50 amounted to 79 nM in series [2] and 16 nM in series [9]. The molecule `O=C(CCC/C=C\C[C@@H]1[C@@H](CC[C@@H](O)CCc2ccccc2)[C@H](O)C[C@@H]1O)OCCCCO[N+](=O)[O-]` [LATANOPROSTENE BUNOD] showed a half-life in series [10] of 1.8 h. Consider `O=C(O)CCC[C@H]1CC[C@@H]2[C@@H](/C=C/[C@@H](O)COc3cc(F)ccc3F)[C@H](O)C[C@@H]2OC1` [ONO-AG-367], for which the EC50 was 22.3 nM in series [3] and 28.6 nM in [4].
